Data published in ChEMBL document CHEMBL1156644, “Cembrane diterpenes from the gorgonian Leptogorgia laxa” (2008).

Experiments:
Format in all cases: functional
MDA-MB-231 = experiment: Cytotoxicity against human MDA-MB-231 cells by SRB method
HT-29 = experiment: Cytotoxicity against human HT29 cells by SRB method
A549 = experiment: Cytotoxicity against human A549 cells by SRB method

SMILES: C=C(C)[C@@H]1CC/C(C)=C/CC/C(C)=C\C(=O)C[C@@]2(C)O[C@@H]2C1 [LEPTODIENONE A]
- GI50 (MDA-MB-231): 16.2 µM
- GI50 (HT-29): 14.9 µM

SMILES: C=C(C)[C@@H]1CC/C(C)=C/CC/C(C)=C/C(=O)C[C@@]2(C)O[C@@H]2C1 [LEPTODIENONE B]
- GI50 (MDA-MB-231): 6.3 µM
- GI50 (A549): 5.6 µM
- GI50 (HT-29): 10.9 µM
